In one data set the test system is Candida albicans. Description: Antifungal activity against Candida albicans. It is filed as functional.
Data set [1] can be described thus: Ratio of AUC in neonates with Candida albican infection to MIC for Candida albicans. It counts as functional.
Data set [2] can be described thus: AUC (0 to 24 hrs) in candidiasis patient at 8 mg/kg, iv by HPLC. It counts as ADME, organism-based. Also noted: time < 24 hr, dose 8 mg/kg, route intravenous. The note with it: human, plasma.
The nature of data set [3]: AUC (0 to 24 hrs) in candidiasis patient at 10 mg/kg, iv by HPLC. The following applies: human, plasma. Also noted: time < 24 hr, dose 10 mg/kg, route intravenous. It is filed as ADME, organism-based.
Data set [4] can be described thus: AUC (0 to 24 hrs) in candidiasis patient at 12 mg/kg, iv by HPLC. It is filed as ADME, organism-based. Also on record: time < 24 hr, dose 12 mg/kg, route intravenous. The following applies: human, plasma.
Data set [5] can be described thus: Volume of distribution in iv dosed adult human by HPLC. It is filed as ADME, organism-based. The note with it: in vivo.
Data set [6] in a line: Volume of distribution in iv dosed human infant by HPLC. It is filed as ADME, organism-based. The following applies: in vivo.
Data set [7] in a line: Dose normalized clearance in iv dosed adult human by HPLC. It is filed as ADME, organism-based. The following applies: in vivo.

Molecules are shown by their SMILES. In brackets after ≈: the same amount, converted by molar mass. Starred links: 1 amine or outer side, 2 acyl side, 3 side chain; linkers in the order of their positions; H or OH if unused. Positions of bridges follow the written chain, without caps; N, C: chain ends. Non-standard residues stand in square brackets, D forms with d. Residues, ends and D or L forms follow the SMILES beside them. *: point of attachment. hTyr(3S-OH,4S-OH,3'-OSO3H) = N[C@H](C(=O)O)[C@H](O)[C@@H](O)c1ccc(O)c(OS(=O)(=O)O)c1; Orn(4R-OH,5R-OH) = O=C([C@H](C[C@@H](O)[C@@H](O)N[*:3])N[*:1])[*:2]; Pro(3S-OH,4S-Me) = C[C@H]1CN[C@H](C(=O)O)[C@H]1O; X1 = CCCCCOc1ccc(-c2cc(-c3ccc(C(=O)*)cc3)no2)cc1; Gln(3R-OH) = NC(=O)C[C@@H](O)[C@H](N)C(=O)O; Hyp = O=C(O)[C@@H]1C[C@@H](O)CN1

In general, MIC refers to the lowest concentration that inhibits growth of the organism. Low readings indicate a more susceptible organism, high ones a less susceptible organism. A word on the AUC(0-t): it is exposure summed from dosing to a finite time, without extrapolation to infinity. As usually defined, the Vd is a proportionality between amount in the body and measured concentration, not a real space. Lower therefore signals little distribution into tissue. A word on the clearance: it is a measure of how efficiently the substance is removed, as volume per time. For `CCCCCOc1ccc(-c2cc(-c3ccc(C(=O)N[C@H]4C[C@@H](O)[C@@H](O)NC(=O)[C@@H]5[C@@H](O)[C@@H](C)CN5C(=O)[C@H]([C@H](O)CC(N)=O)NC(=O)[C@H]([C@H](O)[C@@H](O)c5ccc(O)c(OS(=O)(=O)O)c5)NC(=O)[C@@H]5C[C@@H](O)CN5C(=O)[C@H]([C@@H](C)O)NC4=O)cc3)no2)cc1` [MICAFUNGIN] (X1-[Orn(4R-OH,5R-OH)]T[Hyp][hTyr(3S-OH,4S-OH,3'-OSO3H)][Gln(3R-OH)][Pro(3S-OH,4S-Me)]; lactam 1-C), in the data set on Candida albicans, the lowest concentration to inhibit growth (MIC) was 0.125 µg/mL (≈ 0.0984 µM). For the same molecule, the Ratio in data set [1] came out at 1330. The AUC(0-t) at 24 h in data set [2], in data set [3] and in data set [4] was less than 166 µg·h/mL in each case. Moreover, the Vd in data set [5] stood at 10.4 L; in data set [6], 10.3 L. Further, the clearance in data set [7] is 19.5 mL/min.

The values above are taken from ChEMBL document CHEMBL1255472, “Population pharmacokinetics of micafungin in neonates and young infants” (Antimicrob Agents Chemother, 2010).
